In the supplement of paper PMC8149375:

Experiments:
Conditions in all cases: treatment: drug + dasatinib (fixed dose, not stated); 5 days
[1] = test system: 769-P; experiment: GI50 of drug in presence of dasatinib; higher = less potent
Procedure: (§1)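 Primary HTS combination arm: 8 RCC cell lines treated with 8 doses (up to 10 uM) of each library drug plus a fixed dose of dasatinib (dose not stated) for 5 days; viability read by CellTiter-Glo and normalised to DMSO. GI50 was fitted with XLfit, AUC is the area under the dose-response curve, and minimum viability is the lowest fraction of DMSO viability across doses.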

[2] = test system: 786-O; experiment: as above
Procedure: as §1

[3] = test system: A498; experiment: as above
Procedure: as §1

[4] = test system: ACHN; experiment: as above
Procedure: as §1

[5] = test system: CAKI-1; experiment: as above
Procedure: as §1

[6] = test system: SN12C; experiment: as above
Procedure: as §1

[7] = test system: TK-10; experiment: as above
Procedure: as §1

[8] = test system: UO-31; experiment: as above
Procedure: as §1

[9] = test system: 769-P; experiment: minimum viability across doses, drug + dasatinib, relative to DMSO (fraction); higher = less growth inhibition
Procedure: as §1

[10] = test system: 786-O; experiment: as above
Procedure: as §1

[11] = test system: A498; experiment: as above
Procedure: as §1

[12] = test system: ACHN; experiment: as above
Procedure: as §1

[13] = test system: CAKI-1; experiment: as above
Procedure: as §1

[14] = test system: SN12C; experiment: as above
Procedure: as §1

[15] = test system: TK-10; experiment: as above
Procedure: as §1

[16] = test system: UO-31; experiment: as above
Procedure: as §1

[17] = test system: 769-P; experiment: AUC of dose-response viability curve, drug + dasatinib, normalised to DMSO (arbitrary (AUC of normalised viability)); higher = less growth inhibition
Procedure: as §1

[18] = test system: 786-O; experiment: as above
Procedure: as §1

[19] = test system: A498; experiment: as above
Procedure: as §1

[20] = test system: ACHN; experiment: as above
Procedure: as §1

[21] = test system: CAKI-1; experiment: as above
Procedure: as §1

[22] = test system: SN12C; experiment: as above
Procedure: as §1

[23] = test system: TK-10; experiment: as above
Procedure: as §1

[24] = test system: UO-31; experiment: as above
Procedure: as §1

Row | GI50 of drug [2] | GI50 of drug [4] | Structure (SMILES) | GI50 of drug [1] | GI50 of drug [3] | GI50 of drug [5] | GI50 of drug [6] | GI50 of drug [7] | GI50 of drug [8] | minimum viability across doses [9] | minimum viability across doses [10] | minimum viability across doses [11] | minimum viability across doses [12] | minimum viability across doses [13] | minimum viability across doses [14] | minimum viability across doses [15] | minimum viability across doses [16] | AUC of dose-response viability curve [17] | AUC of dose-response viability curve [18] | AUC of dose-response viability curve [19] | AUC of dose-response viability curve [20] | AUC of dose-response viability curve [21] | AUC of dose-response viability curve [22] | AUC of dose-response viability curve [23] | AUC of dose-response viability curve [24]
1 | 695 nM | 411 nM | O=C(NCCCNc1nc(Nc2cccc(NC(=O)N3CCCC3)c2)ncc1I)c1cccs1 [BX-795] + Cc1nc(Nc2ncc(C(=O)Nc3c(C)cccc3Cl)s2)cc(N2CCN(CCO)CC2)n1 [dasatinib] | 1590 nM | > 10 µM | 457 nM | 4410 nM | 1780 nM | 3020 nM | 0.0706 | 0.00318 | 0.74 | 0.155 | 0.0814 | 0.334 | 0.0986 | 0.015 | 2.08 | 1.72 | 3.06 | 1.74 | 1.77 | 2.44 | 2.09 | 3.15
2 | 937 nM | 1280 nM | O=C(Nc1cccc(Nc2ncc(Br)c(NCCc3cnc[nH]3)n2)c1)N1CCCC1 [BX-912] + Cc1nc(Nc2ncc(C(=O)Nc3c(C)cccc3Cl)s2)cc(N2CCN(CCO)CC2)n1 [dasatinib] | 4600 nM | 5.82 µM | 502 nM | 1180 nM | 2590 nM | 9130 nM | 0.335 | 0.0673 | 0.365 | 0.168 | 0.0425 | 0.0907 | 0.144 | 0.288 | 2.3 | 1.78 | 2.97 | 1.9 | 1.8 | 2.23 | 2.25 | 3.19
3 | 69.8 nM | 11.6 nM | Cc1nc(NC(=O)N2CCC[C@H]2C(N)=O)sc1-c1ccnc(C(C)(C)C(F)(F)F)c1 [BYL719] + Cc1nc(Nc2ncc(C(=O)Nc3c(C)cccc3Cl)s2)cc(N2CCN(CCO)CC2)n1 [dasatinib] | 3680 nM | > 10 µM | 1720 nM | > 10000 nM | 2790 nM | 5560 nM | 0.393 | 0.114 | 0.54 | 0.242 | 0.162 | 0.407 | 0.305 | 0.0931 | 2.29 | 1.56 | 3.24 | 1.45 | 2.14 | 2.23 | 2.15 | 3.72
4 | 1340 nM | 14.1 nM | C=CC(=O)Nc1cc2c(Nc3ccc(F)c(Cl)c3)ncnc2cc1OCCCN1CCOCC1 [CI-1033 (Canertinib)] + Cc1nc(Nc2ncc(C(=O)Nc3c(C)cccc3Cl)s2)cc(N2CCN(CCO)CC2)n1 [dasatinib] | 46.4 nM | 4.07 µM | 739 nM | 969 nM | 283 nM | 1330 nM | 0.185 | 0.372 | 0.0275 | 0.11 | 0.0894 | 0.295 | 0.133 | 0.00946 | 1.46 | 2.11 | 2.74 | 1.31 | 1.84 | 2.13 | 1.79 | 2.4
5 | 482 nM | 137 nM | Cc1nc(N)sc1-c1ccnc(Nc2ccc(N3CCOCC3)cc2)n1 [CYC116] + Cc1nc(Nc2ncc(C(=O)Nc3c(C)cccc3Cl)s2)cc(N2CCN(CCO)CC2)n1 [dasatinib] | 1020 nM | 6.52 µM | 332 nM | 831 nM | 640 nM | 2020 nM | 0.074 | 0.0032 | 0.381 | 0.0722 | 0.00751 | 0.0981 | 0.0917 | 0.0118 | 1.92 | 1.74 | 3.01 | 1.35 | 1.45 | 2 | 1.96 | 2.86
6 | 1350 nM | 210 nM | COc1cc2c(Oc3ccc4[nH]c(C)cc4c3F)ncnc2cc1OCCCN1CCCC1 [Cediranib (AZD2171)] + Cc1nc(Nc2ncc(C(=O)Nc3c(C)cccc3Cl)s2)cc(N2CCN(CCO)CC2)n1 [dasatinib] | 3970 nM | 2.39 µM | 287 nM | 355 nM | 2240 nM | 617 nM | 0.145 | 0.13 | 0.154 | 0.0558 | 0.019 | 0.0758 | 0.0412 | 0.014 | 2.35 | 2.21 | 2.63 | 1.61 | 1.59 | 1.85 | 2.35 | 2.17

Row | Structure (SMILES) | GI50 of drug [2] | GI50 of drug [4] | GI50 of drug [1] | GI50 of drug [3] | GI50 of drug [5] | GI50 of drug [6] | GI50 of drug [7] | GI50 of drug [8] | minimum viability across doses [9] | minimum viability across doses [10] | minimum viability across doses [11] | minimum viability across doses [12] | minimum viability across doses [13] | minimum viability across doses [14] | minimum viability across doses [15] | minimum viability across doses [16] | AUC of dose-response viability curve [17] | AUC of dose-response viability curve [18] | AUC of dose-response viability curve [19] | AUC of dose-response viability curve [20] | AUC of dose-response viability curve [21] | AUC of dose-response viability curve [22] | AUC of dose-response viability curve [23] | AUC of dose-response viability curve [24]
7 | O=c1[nH]c2ccc(Cl)cc2c(N[C@@H]2CN3CCC2CC3)c1-c1nc2ccccc2[nH]1 [CHIR-124] + Cc1nc(Nc2ncc(C(=O)Nc3c(C)cccc3Cl)s2)cc(N2CCN(CCO)CC2)n1 [dasatinib] | 37.4 nM | 11.2 nM | 101 nM | 0.293 µM | 87.1 nM | 1000 nM | 70.6 nM | 73.9 nM | 0.0198 | 0.00497 | 0.0177 | 0.018 | 0.0428 | 0.00873 | 0.151 | 0.00945 | 1.31 | 0.817 | 2.13 | 0.737 | 1.3 | 1.76 | 1.37 | 1.52
